From patent US20160251725A1, “METHOD FOR PREDICTING CLINICAL TOXICITY AND OUTCOME” (AGENCY FOR SCIENCE, TECHNOLOGY AND RESEARCH, priority 2013, published 2016)

Test system: mRCC patients
Assay: Sunitinib toxicities in mRCC patients (CTCAE version 3.0), association with patient factors and genotypes
Format: in vivo, human
Procedure: Twelve patients in this study received a starting dose of 50 mg daily. Six patients started with 25 mg daily due to advanced age or patients' aversion to expected toxicities.
Patient characteristics were also collected including age, gender, ethnicity, body weight and height, and Eastern Cooperative Oncology Group (ECOG) performance status. Memorial Sloan-Kettering Cancer Center (MSKCC) prognostic score was calculated for each patient with available data. All the collected data were de-identified by a third party before being used in statistical analysis. The follow-up period ended at the end of April, 2014.
The toxicities analyzed included leucopenia, neutropenia, thrombocytopenia, diarrhea, hand-foot syndrome and early toxicity-necessitated treatment termination. […] Early toxicity-necessitated treatment termination was defined as interruption of the first or second treatment cycle consented by the patient and the physician based on recognition of intolerable or life-threatening toxicities without evidence of progressive disease and failure to resume treatment as far as the patient was followed. For patients experiencing any toxicity grade≧2, cycle interruptions were frequently required; in such cases, a resumed treatment with 25% dose reduction would be applied for safety and life quality considerations.
Genotype associations with toxicity events or responsive tumor were first analyzed using univariate logistic regression. Genotypes generating P<0.20 were further analyzed using multivariate logistic regression including patient age, gender, baseline ECOG status and starting dose as covariates. Progression-free survival and overall survival were estimated by means of Kaplan-Meier method, while the associations of genotypes and patient characteristics with PFS and OS were analyzed using two-tailed log rank test. The effects of genotypes on the progression-free survival and overall survival were then evaluated using multivariate Cox regression model by including genotypes and patient characteristics with P<0.05 in univariate analysis. […] In all analyses, missing data were kept missing except for baseline ECOG status, which was replaced with the median value. As this was designed as a validation study of previously observed correlations rather than an exploratory evaluation, multiple testing correction was not done.

[1] = ABCB1 2677 TT + AT + GT vs Other
[2] = ABCB1 haplotype TTT/TTT vs Other

In the case of CCN(CC)CCNC(=O)c1c(C)[nH]c(/C=C2\C(=O)Nc3ccc(F)cc32)c1C [sunitinib], the “Decrease of the risk of diarrhea” value (ABCB1 1236 T allele) is reported as 25 fold, the “Decrease of the risk of early toxicity-necessitated treatment termination” value (ABCB1 1236 T allele) is reported as 10 fold and the “Decrease of the risk of neutropenia” value (ABCB1 1236 T allele) is reported as 3 fold. For the same compound, the Diarrhea prevalence (ABCB1 1236 T/C CC) was 7/9, the Neutropenia prevalence (ABCB1 1236 T/C CC + CT) was 27/52 and the “Toxicity-necessitated treatment termination prevalence” value (ABCB1 1236 T/C CC + CT) was 10/53. The Neutropenia prevalence (ABCB1 1236 T/C TT) was 11/32, the “Toxicity-necessitated treatment termination prevalence” value (ABCB1 1236 T/C TT) was 2/30 and the Diarrhea prevalence (ABCB1 1236 T/C TT + CT) was 13/82. For the same compound, the “Diarrhea OR multivariate” value (ABCB1 1236 TT + CT vs CC) was 0.04, the “Diarrhea OR univariate” value (ABCB1 1236 TT + CT vs CC) was 0.1 and the “Neutropenia OR multivariate” value (ABCB1 1236 TT vs CC + CT) was 0.3. For the same compound, the “Neutropenia OR univariate” value (ABCB1 1236 TT vs CC + CT) was 0.5, the “Toxicity-necessitated treatment termination OR multivariate” value (ABCB1 1236 TT vs CC + CT) was 0.1 and the “Toxicity-necessitated treatment termination OR univariate” value (ABCB1 1236 TT vs CC + CT) was 0.3. For the same compound, the Neutropenia prevalence (ABCB1 2677 G/TA Other) was 20/35, the Neutropenia prevalence (ABCB1 2677 G/TA TT + AT + GT) was 20/53 and the “Decrease of the risk of neutropenia” value (ABCB1 2677 T allele) was 3 fold. The “Neutropenia OR multivariate” value [1] was 0.4, the “Neutropenia OR univariate” value [1] was 0.5 and the “Decrease of the risk of neutropenia” value (ABCB1 3435, 1236, 2677 TTT haplotype) was 10 fold. For the same compound, the Neutropenia prevalence (ABCB1 3435 C/T CC + CT) was 38/75, the Neutropenia prevalence (ABCB1 3435 C/T TT) was 1/12 and the “Decrease of the risk of diarrhea” value (ABCB1 3435 T allele) was 3 fold. For the same compound, the “Decrease of the risk of neutropenia” value (ABCB1 3435 T allele) was 10 fold, the Diarrhea prevalence (ABCB1 3435 T/C CC) was 11/34 and the Diarrhea prevalence (ABCB1 3435 T/C TT + CT) was 9/60. The “Diarrhea OR multivariate” value (ABCB1 3435 TT + CT vs CC) was 0.3, the “Diarrhea OR univariate” value (ABCB1 3435 TT + CT vs CC) was 0.4 and the “Neutropenia OR multivariate” value (ABCB1 3435 TT vs CC + CT) was 0.1. For the same compound, the “Neutropenia OR univariate” value (ABCB1 3435 TT vs CC + CT) was 0.1, the Neutropenia prevalence (ABCB1 haplotype Other) was 38/79 and the Neutropenia prevalence (ABCB1 haplotype TTT/TTT) was 1/8. For the same compound, the “Neutropenia OR multivariate” value [2] was 0.1, the “Neutropenia OR univariate” value [2] was 0.2 and the “Decrease of the risk of neutropenia” value (ABCG2 421 A allele) was 3 fold. For the same compound, the “Neutropenia OR multivariate” value (ABCG2 421 AA vs CC + AC) was 0.3, the “Neutropenia OR univariate” value (ABCG2 421 AA vs CC + AC) was 0.5 and the Neutropenia prevalence (ABCG2 421 C/A AA) was 16/44. The Neutropenia prevalence (ABCG2 421 C/A CC + AC) was 23/42, the “Diarrhea OR univariate” value (Age) was 1.0 and the “Leucopenia OR univariate” value (Age) was 1.0. The “Neutropenia OR univariate” value (Age) was 1.0, the “Toxicity-necessitated treatment termination OR univariate” value (Age) was 1.1 and the Diarrhea prevalence (Baseline ECOG 0) was 6/27. For the same compound, the Leucopenia prevalence (Baseline ECOG 0) was 1/25, the Neutropenia prevalence (Baseline ECOG 0) was 13/25 and the “Toxicity-necessitated treatment termination prevalence” value (Baseline ECOG 0) was 2/26. For the same compound, the Diarrhea prevalence (Baseline ECOG 1) was 9/50, the Leucopenia prevalence (Baseline ECOG 1) was 9/44 and the Neutropenia prevalence (Baseline ECOG 1) was 22/46. For the same compound, the “Toxicity-necessitated treatment termination prevalence” value (Baseline ECOG 1) was 7/44, the “Diarrhea OR univariate” value (Baseline ECOG 1 vs 0) was 0.8 and the “Leucopenia OR univariate” value (Baseline ECOG 1 vs 0) was 6.2. For the same compound, the “Neutropenia OR univariate” value (Baseline ECOG 1 vs 0) was 0.9, the “Toxicity-necessitated treatment termination OR univariate” value (Baseline ECOG 1 vs 0) was 2.3 and the Diarrhea prevalence (Baseline ECOG 2) was 4/12. The Leucopenia prevalence (Baseline ECOG 2) was 1/12, the Neutropenia prevalence (Baseline ECOG 2) was 5/12 and the “Toxicity-necessitated treatment termination prevalence” value (Baseline ECOG 2) was 2/12. The “Diarrhea OR univariate” value (Baseline ECOG 2 vs 0) was 1.8, the “Leucopenia OR univariate” value (Baseline ECOG 2 vs 0) was 2.2 and the “Neutropenia OR univariate” value (Baseline ECOG 2 vs 0) was 0.7. The “Toxicity-necessitated treatment termination OR univariate” value (Baseline ECOG 2 vs 0) was 2.4, the Diarrhea prevalence (Baseline ECOG 3) was 1/6 and the Leucopenia prevalence (Baseline ECOG 3) was 0/4. For the same compound, the Neutropenia prevalence (Baseline ECOG 3) was 0/5, the “Toxicity-necessitated treatment termination prevalence” value (Baseline ECOG 3) was 2/5 and the “Diarrhea OR univariate” value (Baseline ECOG 3 vs 0) was 0.7. The “Toxicity-necessitated treatment termination OR univariate” value (Baseline ECOG 3 vs 0) was 8.0, the “Diarrhea OR univariate” value (Female vs Male) was 1.2 and the “Leucopenia OR univariate” value (Female vs Male) was 3.3. The “Neutropenia OR univariate” value (Female vs Male) was 2.8, the “Toxicity-necessitated treatment termination OR univariate” value (Gender (printed on the Male row)) was 0.9 and the Diarrhea prevalence (Gender Female) was 5/21. For the same compound, the Leucopenia prevalence (Gender Female) was 5/20, the Neutropenia prevalence (Gender Female) was 13/20 and the “Toxicity-necessitated treatment termination prevalence” value (Gender Female) was 3/21. The Diarrhea prevalence (Gender Male) was 15/74, the Leucopenia prevalence (Gender Male) was 6/65 and the Neutropenia prevalence (Gender Male) was 27/68. The “Toxicity-necessitated treatment termination prevalence” value (Gender Male) was 10/66, the Diarrhea prevalence (Starting dose 37.5 mg) was 15/78 and the Leucopenia prevalence (Starting dose 37.5 mg) was 10/70. The Neutropenia prevalence (Starting dose 37.5 mg) was 32/72, the “Toxicity-necessitated treatment termination prevalence” value (Starting dose 37.5 mg) was 8/71 and the Diarrhea prevalence (Starting dose 50 mg) was 3/12. For the same compound, the Leucopenia prevalence (Starting dose 50 mg) was 1/11, the Neutropenia prevalence (Starting dose 50 mg) was 7/11 and the “Toxicity-necessitated treatment termination prevalence” value (Starting dose 50 mg) was 2/12. The “Diarrhea OR univariate” value (Starting dose 37.5 vs <37.5 mg) was 0.4, the “Neutropenia OR univariate” value (Starting dose 37.5 vs <37.5 mg) was 3.2 and the “Toxicity-necessitated treatment termination OR univariate” value (Starting dose 37.5 vs <37.5 mg) was 0.0. For the same compound, the “Diarrhea OR univariate” value (Starting dose 50 vs <37.5 mg) was 0.5, the “Neutropenia OR univariate” value (Starting dose 50 vs <37.5 mg) was 7.0 and the “Toxicity-necessitated treatment termination OR univariate” value (Starting dose 50 vs <37.5 mg) was 0.1. The Diarrhea prevalence (Starting dose <37.5 mg) was 2/5, the Leucopenia prevalence (Starting dose <37.5 mg) was 0/4 and the Neutropenia prevalence (Starting dose <37.5 mg) was 1/5. The “Toxicity-necessitated treatment termination prevalence” value (Starting dose <37.5 mg) was 3/4, the “Leucopenia prevalence (cases affected/total in group)” value (all patients (n = 85), first cycle) was 11/85 and the “Toxicity-necessitated treatment termination before completing the first two cycles, prevalence” value (all patients (n = 87)) was 13/87. For the same compound, the “Neutropenia prevalence (cases affected/total in group)” value (all patients (n = 88), first cycle) was 40/88, the “Diarrhea prevalence (cases affected/total in group)” value (all patients (n = 95), first cycle) was 20/95 and the “Increase of the risk of leucopenia” value (both, human, in vivo) was 8.0 fold. The “Increase of the risk of neutropenia” value (both, human, in vivo) was 2.7 fold, the Leucopenia prevalence (both, human, in vivo) was 8/41 and the “Severe to life-threatening toxicities” value (early use, initiated at 50 mg daily) was “frequently noted”. For the same compound, the Neutropenia prevalence (human, in vivo) was 23/41.
